pIC50: −log10 of the molar value.
How the values were obtained:
estrogen receptor (ER) = assay: ER-mediated luciferase reporter induction in T47D KBluc cells; format: cell-based, human; details: relative to 1nM estradiol
Procedure: Experiments testing the effect of flavonoids on estrogen receptor-mediated transcription employed T47D KBluc cells. These cells were maintained in RPMI medium with 10% FBS, penicillin (100 U/mL), and streptomycin (100 μg/mL). For reporter gene experiments, cells were detached as above and replated at 50% confluency in phenol red-free RPMI media with 10% charcoal-stripped FBS and antibiotics (day one). All subsequent steps used phenol red-free medium and trypsin. On day three, the medium was replaced with fresh medium. On day five, cells were washed with PBSE, detached, resuspended, diluted, and replated in the phenol red-free RPMI with charcoal-stripped serum (50,000 cells per well as above).
(§1) For all cell lines, cell harvesting and the luminescence assay for alkaline phosphatase and/or luciferase were performed as previously described in detail. Each condition was performed in quadruplicate. […] Percent inhibition is 100 minus the percent induction.

[1] = biological target: T1, progesterone receptor (PR) (Homo sapiens, UniProt P06401); assay: PR-mediated induction of transcription by R5020 in T47D K5pLuc cells (luciferase reporter and endogenous alkaline phosphatase); format: cell-based; details: for inhibition at 4 µM / inhibition at 8 µM: T47D; for inhibition at 4 µM / inhibition at 8 µM / % Inhibition of PR Induction: R5020 1.0 nM
T1 sequence (P06401 679-933 limits assumed): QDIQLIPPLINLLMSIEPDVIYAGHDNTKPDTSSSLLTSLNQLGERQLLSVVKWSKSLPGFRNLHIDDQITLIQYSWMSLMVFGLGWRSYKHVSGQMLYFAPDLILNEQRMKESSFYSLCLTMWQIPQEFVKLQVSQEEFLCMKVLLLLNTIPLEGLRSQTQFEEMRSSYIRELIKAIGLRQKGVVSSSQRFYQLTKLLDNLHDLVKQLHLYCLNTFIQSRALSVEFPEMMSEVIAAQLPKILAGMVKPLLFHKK
From the text: The engineered T47D breast cancer cell lines employed for the assessment of flavonoid activity on glucocorticoid receptor (GR) and progesterone receptor (PR) signaling permitted the facile quantitation transcription of both an endogenous gene and a stably integrated reporter gene. […] The T47D K5pLuc cell line responds to progestins via induction of a stably integrated cytokeratin 5-luciferase reporter gene. […] For assessment of the effect of the test compounds on androgen receptor (AR) signaling, we used the HeLa13 cell line engineered to stably express human AR and a PSA-luciferase reporter gene containing a 4× multimerized PSA upstream enhancer ARE1 linked to the E4 TATA box and luciferase gene.
Experiments testing the effect of flavonoids on progesterone receptor-mediated transcription employed T47D K5pluc cells. The protocol was the same as that for T47D (A1-2) cells except the medium was Dulbecco’s Modified Eagle’s Medium supplemented with 10% FBS, insulin (10 nM), puromycin 200 ng/mL, nonessential amino acids, penicillin (100 U/mL), and streptomycin (100 μg/mL). When treated with hormone, the synthetic progestin, R5020, was used at 1.0 nM. Hormone treatment was for 20 h at which time cells were harvested for assay of alkaline phosphatase and luciferase.
as §1

[2] = 4 µM, AP (alkaline phosphatase)
[3] = 8 µM, AP (alkaline phosphatase)

SMILES | % ER Induction (estrogen receptor (ER); 1 µM) [%] | % ER Induction (estrogen receptor (ER); 4 µM) [%] | inhibition at 4 µM [1, 2] [%] | inhibition at 4 µM ([1]; 4 µM, LUC (luciferase)) [%] | inhibition at 8 µM [1, 3] [%] | inhibition at 8 µM ([1]; 8 µM, LUC (luciferase)) [%] | % Inhibition of PR Induction [1, 2] [%] | % Inhibition of PR Induction ([1]; 4 µM, LUC (luciferase)) [%] | % Inhibition of PR Induction [1, 3] [%] | % Inhibition of PR Induction ([1]; 8 µM, LUC (luciferase)) [%] | inhibition of PR-mediated gene expression of both reporter genes ([1]; 4.0 micromolar) | inhibition of PR-mediated gene expression of both reporter genes ([1]; 8.0 micromolar) [%] | pIC50 ([1]; R5020, alkaline phosphatase and luciferase, read-out: IC50, inhibition of PR-mediated induction of gene expression)
O=c1cc(-c2ccc(O)c(O)c2)oc2ccccc12 [3′,4′-dihydroxyflavone] | 0 | 13 | 8 | -64 | 27 | -14 |  |  |  |  |  |  | 
O=c1cc(-c2ccc(O)cc2)oc2ccccc12 [4′-hydroxyflavone] | 12 | 130 | 31 | -62 | 49 | -81 |  |  |  |  |  |  | 
O=c1cc(-c2ccc(O)c(O)c2)oc2cccc(O)c12 [5,3′,4′-trihydroxyflavone] | 0 | 13 | 46 | -7 | 65 | 55 |  |  |  |  |  |  | 
O=c1cc(-c2ccc(O)cc2)oc2cccc(O)c12 [5,4′-dihydroxyflavone] | 53 | 138 | 23 | -12 | 74 | 80 |  |  |  |  |  |  | 
O=c1cc(-c2cc(O)c(O)c(O)c2)oc2cc(O)cc(O)c12 [5,7,3′4′,5′-pentahydroxyflavone] | 0 | −1 |  |  |  |  | 12 | −97 | 45 | −19 |  |  | 
O=C1CC(c2ccc(O)c(O)c2)Oc2cc(O)cc(O)c21 (stereo not shown) [5,7,3′,4′-tetrahydroxyflavanone] | 0 | 20 | 8 | 3 | 40 | 23 |  |  |  |  |  |  | 
O=c1cc(-c2ccc(O)c(O)c2)oc2cc(O)cc(O)c12 [5,7,3′,4′-tetrahydroxyflavone] | 3 | 80 | 82 | 76 | 95 | 95 |  |  |  |  | at least 70% | ≥ 90 | 5.70 to 6.00
COc1ccc([C@@H]2CC(=O)c3c(O)cc(O)cc3O2)cc1O [5,7,3′-triOH, 4′methoxyflavanone] | 10 | 6 | 8 | -6 | 28 | 16 |  |  |  |  |  |  | 
O=C1CC(c2ccc(O)cc2)Oc2cc(O)cc(O)c21 (stereo not shown) [5,7,4′-trihydroxyflavanone] | 48 | 93 | 43 | 52 | 90 | 98 |  |  |  |  |  |  | 
O=c1c(-c2ccc(O)cc2)coc2cc(O)cc(O)c12 [5,7,4′-trihydroxyisoflavone] | 125 | 180 | 49 | -96 | 32 |  |  |  |  |  |  |  | 
O=c1cc(-c2ccccc2)oc2cc(O)cc(O)c12 [5,7-dihydroxyflavone] |  |  | 78 | 71 | 89 | 90 |  |  |  |  | at least 70% | ≥ 90 | 
O=c1cc(-c2ccc(O)cc2)oc2ccc(O)cc12 [6,4′-dihydroxyflavone] | 119 | 192 | 39 | -147 | 37 | -103 |  |  |  |  |  |  | 
O=c1cc(-c2ccc(O)c(O)c2)oc2cc(O)ccc12 [7,3′,4′-trihydroxyflavone] | 0 | 30 | 13 | -11 | 39 | -10 |  |  |  |  |  |  | 
O=c1cc(-c2ccc(O)cc2)oc2cc(O)ccc12 [7,4′-dihydroxyflavone] | 86 | 140 | 41 | -16 | 55 | -49 |  |  |  |  |  |  | 
O=c1c(-c2ccc(O)cc2)coc2cc(O)ccc12 [7,4′-dihydroxyisoflavone] | 125 |  | 41 | -13 | 38 | -126 |  |  |  |  |  |  | 
O=c1cc(-c2ccccc2)oc2ccccc12 [flavone] | 1 | 3 | 10 | -66 | 40 | -107 |  |  |  |  |  |  | 
